Molecules are shown by their SMILES.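 Protocol summary: plate cells (96-well), add compound at 5 concentrations, incubate 48 h, interpolate endpoints linearly. GI50 is the concentration that inhibits growth by half.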 Active and inactive are the calls of the source. No stated cut-off is given here; in the data, active = GI50 up to about 1.1 µM and inactive = higher.

Test systems include ACHN; DU-145; HCC 2998; HCT-116; HL-60; HOP-62; IGROV-1; MOLT-4; NCI-H226; NCI-H460; NCI/ADR-RES; SF-268; SF-295; SK-MEL-28; SK-MEL-2; SK-MEL-5; SN12C; SR; U-251; UACC-257.
Common to all, as to assay: inhibition of tumour cell growth, NCI panel, 48 h

`C=CC[C@H]1[C@H](O[Si](C)(C)C(C)(C)C)C=CC(=O)[C@@H]1CC(=O)OCC`: the GI50 is 14.2 µM (inactive) with ACHN; 16.4 µM (inactive) in the assay on DU-145; 12.9 µM (inactive) in the assay with HCC 2998; 11.4 µM (inactive) in the assay on HCT-116; 8.04 µM (inactive) in the assay with HL-60; 17.5 µM (inactive) in the assay on HOP-62. Besides, the GI50 was 16.4 µM (inactive) in the assay on IGROV-1; 22 µM (inactive) with MOLT-4; 14.8 µM (inactive) with NCI-H226; 14 µM (inactive) in the assay with NCI-H460; 11 µM (inactive) in the assay with NCI/ADR-RES; 14.4 µM (inactive) in the assay with SF-268. The GI50 in the assay on SF-295 is 13.5 µM (inactive); with SK-MEL-28, 17.9 µM (inactive); in the assay on SK-MEL-2 it was 14.9 µM (inactive); in the assay with SK-MEL-5, 11 µM (inactive); in the assay on SN12C, 16.3 µM (inactive); in the assay on SR, 15 µM (inactive). The GI50 with U-251 was 14.6 µM (inactive); with UACC-257 it was 3.98 µM (inactive).

For the molecule `O=C(O)C12C3CCC(CC3)C1(C(=O)O)C1CCC2C1` (configuration not stated), the GI50 in the assay on ACHN, in the assay with DU-145, in the assay with HCC 2998, in the assay on HCT-116, in the assay with HL-60 and with HOP-62 was > 100 µM (inactive) throughout. In addition, the GI50 with IGROV-1, in the assay with MOLT-4, with NCI-H226, in the assay with NCI-H460, with NCI/ADR-RES and with SF-268 was > 100 µM (inactive) throughout. Further, the GI50 in the assay on SF-295 is > 100 µM (inactive); with SK-MEL-28, > 100 µM (inactive); with SK-MEL-2, > 100 µM (inactive); with SK-MEL-5, > 100 µM (inactive); in the assay with SN12C, > 100 µM (inactive); with SR it was < 0.01 µM (active). Also, the GI50 in the assay on U-251 and with UACC-257 was > 100 µM (inactive) each time.

For the molecule `COC1(OC)N=C(N)C2(C#N)/C(=N/N(C)C)CC(C)C12C#N` (configuration not stated), the GI50 with ACHN, with DU-145, with HCC 2998, in the assay with HCT-116, in the assay on HL-60 and in the assay with HOP-62 was > 100 µM (inactive) each time. Besides, the GI50 in the assay with IGROV-1, in the assay on MOLT-4, in the assay on NCI-H226, in the assay on NCI/ADR-RES, in the assay on SF-268 and with SF-295 was > 100 µM (inactive) throughout. The GI50 in the assay with SK-MEL-28, with SK-MEL-2, in the assay with SK-MEL-5, with SN12C, in the assay with SR and in the assay on U-251 was > 100 µM (inactive) in each case. Also, the GI50 with UACC-257 was > 100 µM (inactive).

On to `CC1(C)CN=C(Nc2ccc(Cl)cc2)S1`, for which the GI50 is > 100 µM (inactive) in the assay with ACHN; > 100 µM (inactive) in the assay on DU-145; > 100 µM (inactive) with HCC 2998; 69.5 µM (inactive) in the assay on HCT-116; 30.5 µM (inactive) in the assay with HL-60; > 100 µM (inactive) with HOP-62. The GI50 in the assay on IGROV-1 is > 100 µM (inactive); in the assay on MOLT-4, 58.5 µM (inactive); with NCI-H226, > 100 µM (inactive); in the assay on NCI/ADR-RES it was 76.6 µM (inactive); in the assay on SF-268, > 100 µM (inactive); with SF-295 it was > 100 µM (inactive). The GI50 with SK-MEL-28 is > 100 µM (inactive); in the assay on SK-MEL-2, > 100 µM (inactive); with SK-MEL-5, 62.7 µM (inactive); in the assay with SN12C, > 100 µM (inactive); with SR, 65.6 µM (inactive); in the assay on U-251, > 100 µM (inactive). The GI50 in the assay on UACC-257 was 70 µM (inactive).

On to `CO/C=C(/C(=O)OC)c1ccccc1[C@H]1C[C@@H]1c1ccccc1`, for which the GI50 was 22.5 µM (inactive) in the assay with ACHN; 27.2 µM (inactive) in the assay with DU-145; 20.6 µM (inactive) with HCC 2998; 17.4 µM (inactive) in the assay on HCT-116; 21.9 µM (inactive) with HL-60; 35.2 µM (inactive) in the assay with HOP-62. The GI50 with IGROV-1 is 19.9 µM (inactive); in the assay with MOLT-4 it was 30.1 µM (inactive); in the assay with NCI-H226, 20.5 µM (inactive); with NCI-H460, 19.7 µM (inactive); in the assay on NCI/ADR-RES it was 24 µM (inactive); in the assay with SF-268 it was 24.4 µM (inactive). For the same molecule, the GI50 is 23.1 µM (inactive) in the assay with SF-295; 25.8 µM (inactive) in the assay on SK-MEL-28; 17.2 µM (inactive) in the assay with SK-MEL-2; 8.02 µM (inactive) in the assay with SK-MEL-5; 28.6 µM (inactive) in the assay with SN12C; 14.2 µM (inactive) in the assay on SR. Besides, the GI50 in the assay with U-251 is 23.1 µM (inactive); with UACC-257, 15.8 µM (inactive).

As to `CCOC(=O)C(CS)NC(=O)CCCCCCCC(=O)NC(CS)C(=O)OCC` (configuration not stated), the GI50 in the assay on ACHN is > 100 µM (inactive); in the assay with DU-145, > 100 µM (inactive); in the assay with HCC 2998 it was > 100 µM (inactive); in the assay on HCT-116, > 100 µM (inactive); in the assay with HL-60, 25.8 µM (inactive); in the assay with HOP-62, > 100 µM (inactive). For the same molecule, the GI50 in the assay on IGROV-1 is > 100 µM (inactive); in the assay on MOLT-4, 32.4 µM (inactive); with NCI-H226, > 100 µM (inactive); in the assay with NCI-H460 it was > 100 µM (inactive); in the assay with NCI/ADR-RES it was > 100 µM (inactive); in the assay on SF-295 it was > 100 µM (inactive). For the same molecule, the GI50 with SK-MEL-28 is > 100 µM (inactive); in the assay on SK-MEL-2, 36.9 µM (inactive); with SK-MEL-5, > 100 µM (inactive); in the assay with SN12C, > 100 µM (inactive); with SR, 36.3 µM (inactive); in the assay with U-251, > 100 µM (inactive). Moreover, the GI50 with UACC-257 was 34.4 µM (inactive).

As for `Cc1c(S(=O)(=O)c2ccccc2)c(N)n(Cc2ccccc2)c1C`, the GI50 in the assay on ACHN, with DU-145, with HCC 2998, with HCT-116, in the assay with HL-60 and in the assay with IGROV-1 was > 100 µM (inactive) in each case. Moreover, the GI50 was > 100 µM (inactive) in the assay on MOLT-4; > 100 µM (inactive) with NCI-H226; > 100 µM (inactive) in the assay on NCI-H460; > 100 µM (inactive) in the assay with NCI/ADR-RES; 80.5 µM (inactive) with SF-268; > 100 µM (inactive) in the assay on SF-295. The GI50 with SK-MEL-28, in the assay with SK-MEL-2, with SK-MEL-5, in the assay on SN12C, in the assay with SR and in the assay on U-251 was > 100 µM (inactive) throughout. Also, the GI50 in the assay on UACC-257 is > 100 µM (inactive).

`C[n+]1c(-c2ccc(/C=N\NC(=O)c3ccc(C(=O)N/N=C/c4ccc(-c5cn6ccsc6[n+]5C)cc4)cc3)cc2)cn2ccsc21`: the GI50 with ACHN was 17.9 µM (inactive); in the assay on DU-145, 18.5 µM (inactive); in the assay with HCC 2998, 34 µM (inactive); in the assay with HL-60 it was 16.5 µM (inactive); in the assay on HOP-62, 17.9 µM (inactive); in the assay on IGROV-1, 20 µM (inactive). For the same molecule, the GI50 with MOLT-4 was 15.2 µM (inactive); in the assay on NCI-H226 it was 16.9 µM (inactive); with NCI-H460 it was 19.4 µM (inactive); with NCI/ADR-RES, 17.7 µM (inactive); in the assay with SK-MEL-2, 30.8 µM (inactive); in the assay with SK-MEL-5 it was 16.5 µM (inactive). The GI50 with SN12C was 19.4 µM (inactive); with SR it was 17.3 µM (inactive); in the assay with U-251 it was 25.6 µM (inactive); in the assay on UACC-257 it was 21.7 µM (inactive).

The values above are taken from ChEMBL document CHEMBL1201862, “PubChem BioAssay data set” (2004).
